These are literature values, as cited in US20170083675A1, “Method for Selecting Patient Subpopulation for Custirsen Treatment” (OncoGenex Technologies Inc., priority 2015, published 2017).

The data set relates to metastatic castrate resistant prostate cancer (CRPC). To be noted: second-line chemotherapy.

For the compound `CO[C@H]1C(=O)[C@]2(C)[C@@H](OC)C[C@H]3OC[C@@]3(OC(C)=O)[C@H]2[C@H](OC(=O)c2ccccc2)[C@]2(O)C[C@H](OC(=O)[C@H](O)[C@@H](NC(=O)OC(C)(C)C)c3ccccc3)C(C)=C1C2(C)C` [cabazitaxel], the “survival compared to mitoxantrone (in words)” value is “survival advantage”.
